From PubChem BioAssay AID623904 (Broad Institute, 2012)
“And” between values parts separate entries of the source, which are not always exact repeats. Identical values can stand only once. The source made the active and inactive calls.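 Rule for the calls: active = growth inhibition with an AC50 at or below twice the top valid tested dose; inconclusive = flat curve at 30 to 70% inhibition, or poor fit; inactive = the rest, including growth increase.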

Test system: Candida glabrata growth, glucose medium, OD600, 48 h
Test: antifungal activity against fermenting C. glabrata – glucose medium, OD600, powder samples, set 2, dose response (AID 623904)
Conditions: not given

**Q.** Which AC50 does the source give for `CCOC(=O)N1C(=O)C2(CCCCC2)N(c2ccc(F)cc2)C1=S` here?
**A.** Its AC50 is 2.34 µM.

**Q.** For `CCOC(=O)N1C(=S)N(c2ccc(C)cc2)C(=O)C12CCCCC2`, which AC50 is on record?
**A.** The AC50 was > 12 µM (inactive).

**Q.** With `CCOC(=O)N1C(=O)C2(CCCCC2)N(c2cccc(C)c2)C1=S` as the molecule, how does the AC50 read?
**A.** Its AC50 is 2.34 µM.

**Q.** Which AC50 does the source give for `CCOC(=O)N1C(=O)C2(CCOCC2)N(c2ccc(C)cc2)C1=S` here?
**A.** The AC50 was > 12 µM (inactive).

**Q.** For `CCOC(=O)N1C(=S)N(c2ccc(C)cc2)C2(CCCCC2)C1=NCc1ccccc1`, which AC50 is on record?
**A.** Its AC50 is > 12 µM (inactive).

**Q.** For `Cc1ccc(N2C(=O)C3(CCCCC3)NC2=S)cc1`, which AC50 is on record?
**A.** The AC50 was > 12 µM (inactive).

**Q.** Which AC50 does the source give for `CCOC(=O)N1C(=O)C2(CCCCC2)N(c2ccc(C#N)cc2)C1=S` here?
**A.** Its AC50 is 3.29 µM.

**Q.** With `Cc1ccc(N2C(=O)N(C)C(=O)C23CCCCC3)cc1` as the molecule, how does the AC50 read?
**A.** Its AC50 is > 12 µM (inactive).

**Q.** With `CCOC(=O)N1C(=O)C2(CCCCC2)N(c2ccc(C(F)(F)F)cc2)C1=S` as the molecule, how does the AC50 read?
**A.** Its AC50 is 4.15 µM.

**Q.** Which AC50 does the source give for `Cc1ccc(N2C(=O)NC(=O)C23CCCCC3)cc1` here?
**A.** The AC50 was > 12 µM (inactive).

**Q.** Which AC50 does the source give for `CCOC(=O)N1C(=O)C2(CCCCC2)NC1=S` here?
**A.** The AC50 was > 12 µM (inactive).

**Q.** Which AC50 does the source give for `COC(=O)N1C(=O)C2(CCCCC2)N(c2ccc(C)cc2)C1=S` here?
**A.** Its AC50 is 5.93 µM.

**Q.** With `Cc1ccc(N2C(=S)N(S(C)(=O)=O)C(=O)C23CCCCC3)cc1` as the molecule, how does the AC50 read?
**A.** The AC50 was > 12 µM (inactive).

**Q.** For `CCOC(=O)N1C(=O)C2(CCC2)N(c2ccc(C)cc2)C1=S`, which AC50 is on record?
**A.** Its AC50 is > 12 µM (inactive).

**Q.** For `CCOC(=O)N1C(=O)C2(CCCCC2)N(c2ccccc2)C1=S`, which AC50 is on record?
**A.** The AC50 was 2.04 µM.

**Q.** For `CC1/C=C/C=C\C=C\C=C\C=C\C=C\C=C\C(O[C@H]2OC(C)C(O)C(N)C2O)CC2OC(O)(CC(O)CC(O)C(O)CCC(O)CC(O)CC(=O)OC(C)C(C)C1O)CC(O)C2C(=O)O` (stereo partly drawn), which AC50 is on record?
**A.** Its AC50 is 0.206 µM.

**Q.** Which AC50 does the source give for `CCCC(=O)N1C(=O)C2(CCCCC2)N(c2ccc(C)cc2)C1=S` here?
**A.** The AC50 was 1.48 µM.

**Q.** For `CCOC(=O)N1C(=S)NC(=O)C12CCCCC2`, which AC50 is on record?
**A.** Its AC50 is > 12 µM (inactive).

**Q.** With `CCOC(=O)N1C(=O)C2(CCCCC2)N(c2ccc(C)cc2)C1=S` as the molecule, how does the AC50 read?
**A.** Its AC50 is 1.85 µM and 2.09 µM.

**Q.** With `CCOC(=O)N1C(=O)C2(CCCC2)N(c2ccc(C)cc2)C1=S` as the molecule, how does the AC50 read?
**A.** The AC50 was > 12 µM (inactive).

**Q.** For `Cc1ccc(N2C(=O)C(=O)NC2=S)cc1`, which AC50 is on record?
**A.** The AC50 was > 12 µM (inactive).

Test system: not listed separately
Test: as above
Conditions: Candida glabrata growth, glucose medium, OD600, 48 h; at 6 µM (top of the series)

**Q.** Which activity change, negative = inhibition does the source give for `CCCCN1C(=O)N(c2ccc(C)cc2)C2(CCCCC2)C1=O` here?
**A.** The activity change, negative = inhibition was -27.1% (inactive).

**Q.** For `Cc1ccc(N2C(=S)NC(=O)C23CCCC3)cc1`, which activity change, negative = inhibition is on record?
**A.** Its activity change, negative = inhibition is -25.3% (inactive).

**Q.** With `Cc1ccc(N2C(=S)NC(=O)C23CCCCC3)cc1` as the molecule, how does the activity change, negative = inhibition read?
**A.** The activity change, negative = inhibition was -5.97% (inactive).

**Q.** For `CCOC(=O)N1C(=O)C2(CCCCC2)N(c2ccc(-c3ccccc3)cc2)C1=S`, which activity change, negative = inhibition is on record?
**A.** Its activity change, negative = inhibition is -30.1% (inactive).

**Q.** With `O=C1NC(=S)NC12CCCCC2` as the molecule, how does the activity change, negative = inhibition read?
**A.** The activity change, negative = inhibition was -24.5% (inactive).

**Q.** Which activity change, negative = inhibition does the source give for `CCOC(=O)N1C(=O)C2(CCCCC2)N(C(C)C)C1=S` here?
**A.** The activity change, negative = inhibition was 10.8% (inactive).

**Q.** Which activity change, negative = inhibition does the source give for `Cc1ccc(N2C(=S)NC(=O)C23CCOCC3)cc1` here?
**A.** Its activity change, negative = inhibition is -7.64% (inactive).

**Q.** With `Cc1ccc(N2C(=S)N(C(=O)OCc3ccccc3)C(=O)C23CCCCC3)cc1` as the molecule, how does the activity change, negative = inhibition read?
**A.** The activity change, negative = inhibition was 5.73% (inactive).

**Q.** Which activity change, negative = inhibition does the source give for `Cc1ccc(N2C(=S)NC(=O)C2(C)C)cc1` here?
**A.** The activity change, negative = inhibition was 46.6% (inactive).

**Q.** Which activity change, negative = inhibition does the source give for `CCOC(=O)N1C(=O)C2(CCCCC2)N(c2ccc(C(C)(C)C)cc2)C1=S` here?
**A.** Its activity change, negative = inhibition is -18.2% (inactive).

**Q.** With `Cc1ccc(N2C(=S)N(C(=O)Oc3ccccc3)C(=O)C23CCCCC3)cc1` as the molecule, how does the activity change, negative = inhibition read?
**A.** The activity change, negative = inhibition was 2.19% (inactive).

**Q.** With `Cc1ccc(N2CC(=O)NC2=O)cc1` as the molecule, how does the activity change, negative = inhibition read?
**A.** Its activity change, negative = inhibition is 9.85% (inactive).

**Q.** With `CCOC(=O)N1C(=O)C(C)(C)N(c2ccc(C)cc2)C1=S` as the molecule, how does the activity change, negative = inhibition read?
**A.** Its activity change, negative = inhibition is -7.97% (inactive).

**Q.** Which activity change, negative = inhibition does the source give for `CC(C)N1C(=S)NC(=O)C12CCCCC2` here?
**A.** Its activity change, negative = inhibition is -10.3% (inactive).

**Q.** Which activity change, negative = inhibition does the source give for `Cc1ccc(N2C(=S)N(C)C(=O)C23CCCCC3)cc1` here?
**A.** Its activity change, negative = inhibition is 2.67% (inactive) and 7.65% (inactive).

**Q.** For `O=C1NC(=S)N(c2ccccc2)C12CCCCC2`, which activity change, negative = inhibition is on record?
**A.** Its activity change, negative = inhibition is 5.48% (inactive).

**Q.** Which activity change, negative = inhibition does the source give for `CCCCN1C(=O)N(c2ccc(C)cc2)C2(CCCCC2)C1=S` here?
**A.** Its activity change, negative = inhibition is -6.75% (inactive).

**Q.** For `Cc1ccc(N2CC(=O)NC2=S)cc1`, which activity change, negative = inhibition is on record?
**A.** Its activity change, negative = inhibition is 2.6% (inactive).

**Q.** With `CCCCN1C(=O)C2(CCCCC2)N(c2ccc(C)cc2)C1=S` as the molecule, how does the activity change, negative = inhibition read?
**A.** The activity change, negative = inhibition was 5.19% (inactive).

**Q.** With `CCOC(=O)N1C(=O)N(c2ccc(C)cc2)C2(CCCCC2)C1=O` as the molecule, how does the activity change, negative = inhibition read?
**A.** Its activity change, negative = inhibition is -17.3% (inactive).

**Q.** Which activity change, negative = inhibition does the source give for `Cc1ccc(N2C(=S)NC(=O)C23CCC3)cc1` here?
**A.** Its activity change, negative = inhibition is 9.11% (inactive).

**Q.** With `O=C1NC(=S)N(c2ccc(F)cc2)C12CCCCC2` as the molecule, how does the activity change, negative = inhibition read?
**A.** Its activity change, negative = inhibition is 11% (inactive).
